Where a chain is given by its changes, count along the chain named. Numbers in names are those of the source. Read-outs that look alike come from different tables or passages of the source.
T1: His-TRAF6_(310-522) (human, UniProt Q9Y4K3 310-522)
T1 chain: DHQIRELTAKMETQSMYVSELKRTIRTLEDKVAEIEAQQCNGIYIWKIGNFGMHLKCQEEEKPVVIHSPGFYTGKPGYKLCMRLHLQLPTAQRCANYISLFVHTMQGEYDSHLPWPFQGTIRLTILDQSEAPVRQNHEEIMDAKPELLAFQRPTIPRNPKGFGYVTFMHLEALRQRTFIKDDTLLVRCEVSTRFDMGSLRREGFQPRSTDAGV

T2: GST-CD40_(216-277) E235Q (human, UniProt P25942 216-277, E235Q)
T2 construct: also called CD40 E235Q; E to Q mutation at P0 of CD40; source: E. coli DH5α or BL21 Codon Plus RIPL, purified (glutathione Sepharose 4B)
T2 sequence: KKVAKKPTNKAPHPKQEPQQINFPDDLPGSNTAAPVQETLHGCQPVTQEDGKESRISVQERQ

T3: GST-RANK_(314-355) E346Q (human, UniProt Q9Y6Q6 314-355, E346Q)
T3 construct: also called RANK E346Q; E to Q mutation at P0 of RANK; source: E. coli DH5α or BL21 Codon Plus RIPL, purified (glutathione Sepharose 4B)
T3 chain: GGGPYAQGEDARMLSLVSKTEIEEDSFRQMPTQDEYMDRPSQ

T4: GST-LMP1_(181-386) Y384D (Epstein-Barr virus, UniProt P03230 181-386, Y384D)
T4 construct: also called LMP1 Y384D; source: E. coli DH5α or BL21 Codon Plus RIPL, purified (glutathione Sepharose 4B)
T4 sequence: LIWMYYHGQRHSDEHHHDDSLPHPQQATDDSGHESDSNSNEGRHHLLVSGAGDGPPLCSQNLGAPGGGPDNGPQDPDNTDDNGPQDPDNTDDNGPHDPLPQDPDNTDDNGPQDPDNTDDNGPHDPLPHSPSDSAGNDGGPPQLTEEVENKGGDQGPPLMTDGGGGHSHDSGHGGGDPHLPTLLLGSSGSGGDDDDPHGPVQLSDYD

T5: His-TRAF6_(310-522) K469A (human, UniProt Q9Y4K3 310-522, K469A)
T5 construct: also called TRAF6 K469A; source: E. coli BL21 Codon Plus RIPL, purified (Ni-NTA)
T5 sequence: T1 chain with K160A

B1: GST-RANK_(314-355) E346Q (domain or fragment)
chain: T3 chain
B2: His-TRAF1_(226-416) (domain or fragment)
chain: RERILSLEQRVVELQQTLAQKDQALGKLEQSLRLMEEASFDGTFLWKITNVTRRCHESACGRTVSLFSPAFYTAKYGYKLCLRLYLNGDGTGKRTHLSLFIVIMRGEYDALLPWPFRNKVTFMLLDQNNREHAIDAFRPDLSSASFQRPQSETNVASGCPLFFPLSKLQSPKHAYVKDDTMFLKCIVETST
notes: source: E. coli BL21 Codon Plus RIPL, purified (Ni-NTA)
B3: His-TRAF5_(363-557) (domain or fragment)
chain: DQRLAVLEEETNKHDTHINIHKAQLSKNEERFKLLEGTCYNGKLIWKVTDYKMKKREAVDGHTVSIFSQSFYTSRCGYRLCARAYLNGDGSGRGSHLSLYFVVMRGEFDSLLQWPFRQRVTLMLLDQSGKKNIMETFKPDPNSSSFKRPDGEMNIASGCPRFVAHSVLENAKNAYIKDDTLFLKVAVDLTDLEDL
notes: as for B2
B4: His-TRAF6_(310-522) (domain or fragment)
chain: T1 chain
notes: also called His-T6; recombinant TRAF6 wild-type; source: E. coli BL21 Codon Plus RIPL, purified (Ni-NTA)
B5: LMP1-derived CTAR2 peptide 8 (amino acids 371-386, 16mer) (peptide)
peptide: GDDDDPHGPVQLSYYD
notes: source: synthetic peptide, spot-synthesised on cellulose membrane
B6: GST-LMP1_(181-386) (domain or fragment)
chain: T4 sequence with D204Y
notes: also called LMP1 wild-type; LMP1 signalling domain; source: E. coli DH5α or BL21 Codon Plus RIPL, purified (glutathione Sepharose 4B)
B7: LMP1-derived CTAR2 peptide 11 (amino acids 357-386, 30mer) (peptide)
peptide: PHLPTLLLGSSGSGGDDDDPHGPVQLSYYD
notes: as for B5

Key:
[1] = test system: LMP1-CL 40 B cell lymphoma; assay: CRISPR/Cas9 knockout, cell survival (selection score) of lymphoma LMP1-CL 40; type: cell-based, mouse; set-up: key: Venus-neg d7 / mCherry+ d2, normalized to nontargeting gRNA (=1); settings: for cell survival (selection score), Figure 6 b: CRISPR guides
Description: (§1) The mouse LMP1 B cell tumors LMP1-CL 37 and 40 were derived from two B cell tumors arising in Rag2^KO;cγ^KO mice inoculated with primary tumor cells from Rag2^KO;cγ^KO mice reconstituted with fetal liver hematopoietic stem cells and progenitor cells from CD19-cre;R26-LMP1^STOPfl;CD3ε^KO animals as described. In these cells, a Venus expression cassette was targeted into the Rosa26 locus by CRISPR/CAS9 as described. Venus-LMP1 B cells were electroporated (Nucleofector, Lonza, human B cell program) with 1 µg of each of two pX330-mcherry-CAS9 vectors[83] encoding varying guide RNAs. In each approach, the first guide RNA (gRNA) targeted Venus while the second gRNA targeted either a nontargeting control sequence not present in the genome, or the gene of interest (GOI). The following gRNA sequences were used: nontargeting (NT) […], ICAM1 […], LMP1 #1 […], LMP1 #2 CCAAAACAGTAGCGCCAAG, LMP1 #3 AATCATCGGTAGCTTGTTG, TRAF6 #1 […], TRAF6 #2 […], TRAF6 #3 […]. The electroporation efficiency, measured as the frequency of mCherry-positive cells on day two after electroporation, was determined by flow cytometry with a Becton Dickinson LSRFortessa flow cytometer. On day seven, the loss of Venus was measured by flow cytometry as a surrogate marker for the number of surviving targeted cells. In the case of a lethal coexpressed GOI gRNA, Venus-negative cells will not survive, and their relative numbers are reduced. The given selection score is defined as the frequency of Venus-negative cells on day seven over the frequency of mCherry-positive cells on day two, normalized to the ratio observed with the nontargeting control gRNA. FACS data were analyzed by FlowJo software. The gating strategy is exemplified in Supplementary Fig. 5b. Animal housing and experiments to generate LMP1 lymphomas were approved by the Landesamt für Gesundheit und Soziales Berlin (G0049/15, G0374/13, and G0135/11). Mice were kept in groups in individually ventilated cages with a 12 h dark-light cycle at 22 ± 2 °C and 55 ± 5% relative humidity. They had access to food and water ad libitum, as well as to nest building material and shelter.

[2] = test system: LMP1-CL 37 B cell lymphoma; assay: CRISPR/Cas9 knockout, cell survival (selection score) of lymphoma LMP1-CL 37; type: cell-based, mouse; set-up: key: Venus-neg d7 / mCherry+ d2, normalized to nontargeting gRNA (=1); settings: for cell survival (selection score), Figure 6 b: CRISPR guides
Description: as §1

[3] = target: T1, His-TRAF6_(310-522)
[4] = target: B6; assay: pull-down; settings: both partners purified
[5] = target: T2, GST-CD40_(216-277) E235Q; assay: AlphaScreen or HTRF; AlphaScreen PPI assay: His-TRAF and GST-LMP1, GST-CD40 or GST-RANK in PBS with 0.5% BSA and 0.1% Tween-20, 1 h at RT; standard 300 nM His-TRAF and 100 nM GST protein if not indicated otherwise; for KD His-TRAF6 at different concentrations, fit one site-specific binding with hill slope; settings: both partners purified
[6] = target: T3, GST-RANK_(314-355) E346Q; assay: as above; settings: both partners purified
[7] = target: T4, GST-LMP1_(181-386) Y384D; assay: as above; settings: both partners purified
[8] = target: GST-CD40_(216-277) E235Q (human, UniProt P25942 216-277, E235Q)
[9] = target: B4; assay: peptide or protein array; peptides spot-synthesised on cellulose membranes in duplicate, incubated with 10 µg per mL purified His-TRAF6 or His-TRAF2 in PBST with 5% milk powder for 4 h at RT; detection by TRAF-specific antibodies; settings: both partners purified
[10] = target: B4; assay: AlphaScreen or HTRF; AlphaScreen PPI assay: His-TRAF and GST-LMP1, GST-CD40 or GST-RANK in PBS with 0.5% BSA and 0.1% Tween-20, 1 h at RT; standard 300 nM His-TRAF and 100 nM GST protein if not indicated otherwise; for KD His-TRAF6 at different concentrations, fit one site-specific binding with hill slope; settings: both partners purified
[11] = target: T5, His-TRAF6_(310-522) K469A; assay: as above; settings: both partners purified

GTTTGAGCTGAGCGAGATCG (expressed or natural sequence) [ICAM1 gRNA]
cell survival (selection score), Figure 6 b ([1]; replicate 1): 1.006
cell survival (selection score), Figure 6 b ([1]; replicate 2): 1.221
cell survival (selection score), Figure 6 b ([1]; replicate 3): 0.6632
cell survival (selection score), Figure 6 b ([1]; replicate 4): 1.293
cell survival (selection score), Figure 6 b ([1]; replicate 5): 1.126
cell survival (selection score), mean ([1]; mean (NT mean = 1), n = 9 LMP1, 10 TRAF6, 5 ICAM1): 1.062
cell survival (selection score), Figure 6 b ([2]; replicate 1): 1.189
cell survival (selection score), Figure 6 b ([2]; replicate 2): 1.169
cell survival (selection score), Figure 6 b ([2]; replicate 3): 1.095
cell survival (selection score), Figure 6 b ([2]; replicate 4): 0.9472
cell survival (selection score), Figure 6 b ([2]; replicate 5): 1.162
cell survival (selection score), Figure 6 b ([2]; replicate 6): 1.151
cell survival (selection score), mean ([2]; mean (NT mean = 1), n = 9 LMP1, 10 TRAF6, 6 ICAM1): 1.119

B1
Kd [3]: 15.6 nM

B2
binding result [4]: binds

B3
binding result [4]: binds

B4
factor of reduction of affinity against wild-type CD40 [5]: 4.3 fold
factor of reduction of affinity against wild-type RANK [6]: 2 fold
fold reduction of affinity against wild-type LMP1 [7]: 1.8 fold
Kd [8]: 73.9 nM

B5
binding result [9]: binds

B6
Kd [10]: 73.2 nM
binding result [11]: binds

B7
binding result [9]: binds
